Assay results from patent US9844542B2, “Substituted imidazopyridine and triazolopyridine compounds as negative allosteric modulators of mGluR5” (Vanderbilt University, priority 2013, dated 2017).
Where “and” joins values, the source holds several entries; their conditions need not be identical. Equal values may be shown once.

The molecules below were run against T1, rat mGluR5 (Rattus norvegicus, UniProt P31424) (assay: mGluR5 calcium mobilization assay (FDSS, Fluo-4) in HEK 293A cells stably expressing rat mGluR5). Details: HEK cells transfected with rat mGluR5; antagonism of glutamate EC80 response; ± = standard error of at least three experiments.
T1 construct: expressed in transfected cells
Format: cell-based
Method: Human embryonic kidney (HEK) cells transfected with rat or human mGluR5 were plated in clear bottom assay plates for assay in a Functional Drug Screening System (FDSS). The cells were loaded with a Ca^2+-sensitive fluorescent dye (e.g., Fluo-4), and the plates were washed and placed in the FDSS instrument. Test compound was applied to cells 3 seconds after baseline readings were taken. Cells were incubated with the test compounds for 140 seconds and then stimulated with an EC20 concentration of an mGluR5 agonist (e.g., glutamate, 3,5-dihydroxyphenylglycine, or quisqualate); 60-80 seconds later an EC80 concentration of agonist was added and readings taken for an additional 40 seconds. Data were collected at 1 Hz. […] Concentration response curves were generated using a four parameter logistical equation.
The above described assay was operated in two modes. In the first mode (utilizing a triple add protocol), a range of concentrations of the present compounds were added to cells, followed by two single fixed concentrations of agonist (EC20 followed by EC80). If a compound acted as a potentiator, an EC50 value for potentiation of the EC20 response and a maximum extent of potentiation by the compound at this concentration of agonist was determined by non-linear curve fitting. If a compound acted as an antagonist, an IC50 value for antagonism of the EC80 response and a maximum extent of antagonism by the compound at this concentration of agonist was determined by non-linear curve fitting. In the second mode (utilizing a double add protocol), several fixed concentrations of the present compounds were added to various wells on a plate, followed by a range of concentrations of agonist for each concentration of present compound; the EC50 values for the agonist at each concentration of compound were determined by nonlinear curve fitting. A decrease in the EC50 value of the agonist with increasing concentrations of the present compounds (a leftward shift of the agonist concentration-response curve) is an indication of the degree of mGluR5 positive allosteric modulation at a given concentration of the present compound. An increase in the EC50 value of the agonist with increasing concentrations of the present compounds (a rightward shift of the agonist concentration response curve) is an indication of the degree of mGluR5 antagonism at a given concentration of the present compound. The second mode also indicates whether the present compounds also affect the maximum response to mGluR5 to agonists.
The mGluR5 activity was determined using the calcium mobilization assays in human embryonic kidney cells as described herein below, wherein the human embryonic kidney cells were transfected with rat mGluR5. The mGluR5 activity data for some compounds are shown as the average of at least three experiments with the standard error in these cases. If no error is indicated for the mGluR5 activity, the values given represent the results from a single experiment or the average of two experiments. The compounds in Table 1 were synthesized with methods identical or analogous to those shown herein. The requisite starting materials were commercially available, described in the literature, or readily synthesized by one skilled in the art of organic synthesis.
GluMax is the amplitude of response in the presence of 30 μM test compound as a percentage of maximal response (100 μM glutamate). Partial antagonists display concentration-response curves (CRCs) that plateau above 10%.
The preparation of rat mGluR5 stable cell-lines is as previously described (e.g. see Romano et al. J Biol. Chem. 1996 Nov. 8; 271(45):28612-6).

T1 sequence (P31424 21-1171 isoform P31424-2 limits assumed): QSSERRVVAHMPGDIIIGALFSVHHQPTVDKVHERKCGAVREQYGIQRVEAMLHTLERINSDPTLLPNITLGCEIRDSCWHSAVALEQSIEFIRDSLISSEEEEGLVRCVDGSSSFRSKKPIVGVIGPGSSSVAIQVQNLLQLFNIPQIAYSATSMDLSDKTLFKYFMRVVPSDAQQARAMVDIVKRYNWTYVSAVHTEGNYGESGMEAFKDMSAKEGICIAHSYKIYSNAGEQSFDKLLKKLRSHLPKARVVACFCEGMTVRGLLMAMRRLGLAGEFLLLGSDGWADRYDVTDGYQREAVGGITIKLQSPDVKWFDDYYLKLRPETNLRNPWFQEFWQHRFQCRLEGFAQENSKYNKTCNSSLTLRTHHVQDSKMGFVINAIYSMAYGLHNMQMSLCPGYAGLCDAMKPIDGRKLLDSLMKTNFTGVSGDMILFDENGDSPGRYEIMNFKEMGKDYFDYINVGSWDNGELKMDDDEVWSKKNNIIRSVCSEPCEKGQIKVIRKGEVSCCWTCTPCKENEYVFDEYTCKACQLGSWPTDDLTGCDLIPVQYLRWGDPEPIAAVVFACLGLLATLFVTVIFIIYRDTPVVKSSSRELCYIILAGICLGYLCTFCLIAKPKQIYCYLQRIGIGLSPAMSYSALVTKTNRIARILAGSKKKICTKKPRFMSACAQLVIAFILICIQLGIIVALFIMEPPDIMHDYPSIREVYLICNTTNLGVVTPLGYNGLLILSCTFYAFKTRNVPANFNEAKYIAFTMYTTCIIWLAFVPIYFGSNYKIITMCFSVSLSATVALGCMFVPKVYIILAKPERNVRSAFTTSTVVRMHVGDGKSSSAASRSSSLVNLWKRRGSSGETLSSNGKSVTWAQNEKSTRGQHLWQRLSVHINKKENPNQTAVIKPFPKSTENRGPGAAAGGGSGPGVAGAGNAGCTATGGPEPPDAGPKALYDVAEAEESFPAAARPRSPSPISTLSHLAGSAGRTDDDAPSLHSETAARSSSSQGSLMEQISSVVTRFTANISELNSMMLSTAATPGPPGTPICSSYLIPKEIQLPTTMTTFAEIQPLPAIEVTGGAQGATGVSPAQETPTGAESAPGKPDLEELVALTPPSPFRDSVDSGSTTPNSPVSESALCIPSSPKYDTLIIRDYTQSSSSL

`Cc1cncc(Oc2cc(C(=O)Nc3cccc(C)n3)c3ncnn3c2)c1` and `Cc1cccc(NC(=O)c2cc(Oc3cncc(Cl)c3)cn3ncnc23)n1` are within 1.5-fold of each other in IC50: 160 nM for the first, 130 nM for the second.

`Cc1ccc(NC(=O)c2cc(Oc3cnc(C)nc3)cn3cnnc23)nc1` and `Cc1ncc(Oc2cc(C(=O)Nc3ccc(F)cn3)c3nncn3c2)cn1` cannot be ordered by IC50: greater than 10000 nM for the first, greater than 10000 nM for the second.

`Cc1csc(NC(=O)c2cc(Oc3cccnc3)cn3ncnc23)n1` and `Cc1csc(NC(=O)c2cc(Oc3cncc(Cl)c3)cn3ncnc23)n1` are within 1.5-fold of each other in IC50: 43 nM for the first, 62 nM for the second.

Going from `COc1cncc(Oc2cc(C(=O)Nc3cccc(OC)n3)c3ncnn3c2)c1` [drawing 289] to `COc1cncc(Oc2cc(C(=O)Nc3cccc(C)n3)c3ncnn3c2)c1`, the IC50 falls from 416 nM to 175 nM (2.4-fold).

Going from `Cc1nc(NC(=O)c2cc(Oc3cncc(Cl)c3)cn3ncnc23)ccc1F` to `Cc1nc(NC(=O)c2cc(Oc3cncc(F)c3)cn3ncnc23)ccc1F`, the IC50 falls from 380 nM to 92 nM (4.1-fold). The second is the more potent here.

`CCc1cccc(NC(=O)c2cc(Oc3cncnc3)cn3ncnc23)n1` and `Cc1cccc(NC(=O)c2cc(Oc3cncnc3)cn3ncnc23)n1` are within 1.5-fold of each other in IC50: 306 nM for the first, 312 nM for the second.

First: CCc1cccc(NC(=O)c2cc(Oc3cncc(OC)c3)cn3ccnc23)n1
Second: CCc1cccc(NC(=O)c2cc(Oc3cncc(F)c3)cn3ccnc23)n1
The IC50 of the first is 1.5-fold higher: 377 nM for the first, 248 nM for the second. The second is the more potent here.

`[2H]c1nc(NC(=O)c2cc(Oc3cncc(Cl)c3)cn3ncnc23)c([2H])c([2H])c1[2H]` and `[2H]c1nc(NC(=O)c2cc(Oc3cncc(F)c3)cn3ncnc23)c([2H])c([2H])c1[2H]` are the same in IC50: 43 nM for the first, 43 nM for the second.

Compared with `Cc1ccc(NC(=O)c2cc(Oc3cccnc3)cn3ncnc23)nc1`, `COc1ccc(NC(=O)c2cc(Oc3cccnc3)cn3ncnc23)nc1` is 2.8-fold higher in IC50: 50 nM for the first, 142 nM for the second. The first is the more potent here.

`O=C(Nc1ccc(F)cn1)c1cc(Oc2cnc(F)c(F)c2)cn2ncnc12` and `O=C(Nc1ccccn1)c1cc(Oc2cnc(F)c(F)c2)cn2ncnc12` are within error of each other in IC50: 59 ± 11 nM for the first, 52 nM for the second.

Compared with `Cc1cccc(NC(=O)c2cc(Oc3cncc(Cl)c3)cn3cnnc23)n1`, `O=C(Nc1cccc(F)n1)c1cc(Oc2cncc(Cl)c2)cn2cnnc12` is 1.7-fold lower in IC50: 695 nM for the first, 414 nM for the second. The second is the more potent here.

Going from `Cc1nc(NC(=O)c2cc(Oc3cncc(F)c3)cn3ccnc23)ccc1F` to `O=C(Nc1cccc(F)n1)c1cc(Oc2cncc(F)c2)cn2ccnc12`, the IC50 falls from 189 nM to 42 nM (4.5-fold). The second is the more potent here.

First: [2H]c1nc(NC(=O)c2cc(Oc3cncc(OC)c3)cn3ccnc23)c([2H])c([2H])c1[2H]
Second: COc1cncc(Oc2cc(C(=O)Nc3cccc(OC)n3)c3nccn3c2)c1
The IC50 of the first is 5.8-fold lower: 46 nM for the first, 268 nM for the second.

`O=C(Nc1ccccn1)c1cc(Oc2cncc(F)c2F)cn2ncnc12` and `O=C(Nc1ccc(F)cn1)c1cc(Oc2cncc(F)c2F)cn2ncnc12` are within 1.5-fold of each other in IC50: 36 nM for the first, 41 ± 2 nM for the second.

Going from `CCc1cccc(NC(=O)c2cc(Oc3cncc(F)c3)cn3cnnc23)n1` to `Cc1cccc(NC(=O)c2cc(Oc3cncc(F)c3)cn3cnnc23)n1`, the IC50 falls from 168 nM to 73 nM (2.3-fold). The second is the more potent here.

First: Cc1nc(NC(=O)c2cc(Oc3cncnc3)cn3ncnc23)sc1F
Second: O=C(Nc1nc(C(F)(F)F)cs1)c1cc(Oc2cncnc2)cn2ncnc12
The IC50 of the first is 3.6-fold lower: 150 nM for the first, 535 nM for the second. The first is the more potent here.

`COc1cccc(NC(=O)c2cc(Oc3cncc(F)c3)cn3ncnc23)n1` and `COc1ccc(NC(=O)c2cc(Oc3cncc(F)c3)cn3ncnc23)nc1` are within 1.5-fold of each other in IC50: 70 nM for the first, 68 nM for the second.

`Cc1ncc(Oc2cc(C(=O)Nc3ccc(F)c(C)n3)c3nncn3c2)cn1` and `Cc1ncc(Oc2cc(C(=O)Nc3cccc(F)n3)c3nncn3c2)cn1` cannot be ordered by IC50: greater than 10000 nM for the first, greater than 10000 nM for the second.

Going from `COc1ccc(NC(=O)c2cc(Oc3cncc(OC)c3)cn3ncnc23)nc1` to `COc1ccc(NC(=O)c2cc(Oc3cncc(OC)c3)cn3cnnc23)nc1`, the IC50 rises from 331 nM to 3970 nM (12-fold). The first is the more potent here.

Compared with `O=C(Nc1cc(F)ccn1)c1cc(Oc2cncc(F)c2)cn2cnnc12`, `O=C(Nc1ccccn1)c1cc(Oc2cncc(F)c2)cn2cnnc12` is 35-fold lower in IC50: 1170 nM for the first, 33 nM for the second. The second is the more potent here.

`Cc1cccc(NC(=O)c2cc(Oc3cnc(C)nc3)cn3ccnc23)n1` and `COc1cccc(NC(=O)c2cc(Oc3cnc(C)nc3)cn3ccnc23)n1` are within 1.5-fold of each other in IC50: 3620 nM for the first, 2840 nM for the second.

First: COc1cccc(NC(=O)c2cc(Oc3cncc(Cl)c3)cn3cnnc23)n1
Second: COc1cccc(NC(=O)c2cc(Oc3cncc(F)c3)cn3cnnc23)n1
The IC50 of the first is 9.3-fold higher: 1360 nM for the first, 146 nM for the second.

Going from `Cc1nnc2c(C(=O)Nc3ccccn3)cc(Oc3cncc(F)c3)cn12` to `Cc1nnc2c(C(=O)Nc3cccc(F)n3)cc(Oc3cncc(F)c3)cn12`, the IC50 rises from 172 nM to 1070 nM (6.2-fold). The first is the more potent here.

`CCc1cccc(NC(=O)c2cc(Oc3cncc(C)c3)cn3ncnc23)n1` and `CCc1cccc(NC(=O)c2cc(Oc3cnc(F)c(F)c3)cn3ncnc23)n1` are within 1.5-fold of each other in IC50: 483 nM for the first, 559 nM for the second.

`O=C(Nc1ccccn1)c1cc(Oc2cncc(Cl)c2)cn2ncnc12` and `O=C(Nc1ccc(F)cn1)c1cc(Oc2cncc(Cl)c2)cn2ncnc12` are within 1.5-fold of each other in IC50: 32 nM for the first, 39 nM for the second.

`O=C(Nc1ccccn1)c1cc(Oc2cccnc2)cn2ncnc12` and `O=C(Nc1cccc(F)n1)c1cc(Oc2cccnc2)cn2ncnc12` are within 1.5-fold of each other in IC50: 28 nM for the first, 32 nM for the second.

Compared with `Cc1ccc(NC(=O)c2cc(Oc3cncc(F)c3)cn3cnnc23)nc1`, `Cc1ccc(NC(=O)c2cc(Oc3cncc(Cl)c3)cn3cnnc23)nc1` is 14-fold higher in IC50: 77 nM for the first, 1050 nM for the second.

First: COc1cncc(Oc2cc(C(=O)Nc3ccccn3)c3nncn3c2)c1
Second: CCc1cccc(NC(=O)c2cc(Oc3cncc(OC)c3)cn3cnnc23)n1 [drawing 287]
The IC50 of the first is lower: 897 nM for the first, greater than 10000 nM for the second. The first is the more potent here.

Compared with `O=C(Nc1ccc(F)cn1)c1cc(Oc2cncc(Cl)c2)cn2ccnc12`, `O=C(Nc1ccc(F)cn1)c1cc(Oc2cncc(Cl)c2)cn2cnnc12` is 3.8-fold higher in IC50: 76 nM for the first, 285 nM for the second.

Going from `O=C(Nc1ccccn1)c1cc(Oc2cncc(Cl)c2)cn2ccnc12` to `O=C(Nc1ccccn1)c1cc(Oc2cncc(F)c2)cn2ccnc12`, the IC50 falls from 33 nM to 16 nM (2.1-fold).

Going from `O=C(Nc1cccc(F)n1)c1cc(Oc2cncnc2)cn2ncnc12` to `O=C(Nc1cccc(F)n1)c1cc(Oc2cncnc2)cn2cnnc12`, the IC50 rises from 117 nM to 232 nM (2-fold).

First: COc1cccc(NC(=O)c2cc(Oc3cccnc3)cn3ncnc23)n1
Second: Cc1cccc(NC(=O)c2cc(Oc3cnc(F)c(F)c3)cn3ncnc23)n1
The IC50 of the first is 3.2-fold lower: 40 nM for the first, 128 nM for the second. The first is the more potent here.

`Cc1csc(NC(=O)c2cc(Oc3cc(F)cnc3F)cn3ncnc23)n1` and `Cc1csc(NC(=O)c2cc(Oc3cncc(F)c3F)cn3ncnc23)n1` are within 1.5-fold of each other in IC50: 110 nM for the first, 83 nM for the second.

`Cc1csc(NC(=O)c2cc(Oc3cncc(Cl)c3)cn3ccnc23)n1` and `Cc1csc(NC(=O)c2cc(Oc3cncc(C#N)c3)cn3ccnc23)n1` are within 1.5-fold of each other in IC50: 182 nM for the first, 127 nM for the second.

Compared with `Cc1csc(NC(=O)c2cc(Oc3cncc(C#N)c3)cn3ncnc23)n1`, `Cc1csc(NC(=O)c2cc(Oc3cncc(F)c3)cn3c(C)nnc23)n1` is 2.2-fold higher in IC50: 193 nM for the first, 426 nM for the second. The first is the more potent here.

Compared with `O=C(Nc1ccc(F)cn1)c1cc(Oc2cncnc2)cn2cnnc12`, `Cc1cccc(NC(=O)c2cc(Oc3cncnc3)cn3cnnc23)n1` is 4.2-fold higher in IC50: 162 nM for the first, 674 nM for the second.

Going from `O=C(Nc1ccc(F)cn1)c1cc(Oc2cncc(O)c2)cn2ncnc12` to `O=C(Nc1cc(F)ccn1)c1cc(Oc2cncc(F)c2)cn2ncnc12`, the IC50 rises from 40 nM to 723 nM (18-fold).

`COc1ccc(NC(=O)c2cc(Oc3cnc(C)nc3)cn3cnnc23)nc1` and `COc1cccc(NC(=O)c2cc(Oc3cnc(C)nc3)cn3cnnc23)n1` cannot be ordered by IC50: greater than 10000 nM for the first, greater than 10000 nM for the second.

`Cc1ncc(Oc2cc(C(=O)Nc3ccc(F)cn3)c3nccn3c2)cn1` and `Cc1ncc(Oc2cc(C(=O)Nc3ccccn3)c3nccn3c2)cn1` are within 1.5-fold of each other in IC50: 3710 nM for the first, 3310 nM for the second.

First: Cc1ccc(NC(=O)c2cc(Oc3cncc(F)c3)cn3nc(C)nc23)nc1
Second: Cc1ccc(NC(=O)c2cc(Oc3cncc(F)c3)cn3c(C)nnc23)nc1
The IC50 of the first is 2.8-fold lower: 468 nM for the first, 1310 nM for the second.

Compared with `CCc1cccc(NC(=O)c2cc(Oc3cncc(F)c3)cn3c(C)nnc23)n1`, `CCc1cccc(NC(=O)c2cc(Oc3cncnc3)cn3cnnc23)n1` is 1.7-fold higher in IC50: 1180 nM for the first, 2060 nM for the second.

First: [2H]c1nc(NC(=O)c2cc(Oc3cnc(C)nc3)cn3cnnc23)c([2H])c([2H])c1[2H]
Second: COc1ccc(NC(=O)c2cc(Oc3cncc(F)c3)cn3cnnc23)nc1
The IC50 of the first is 97-fold higher: 7970 nM for the first, 82 nM for the second.

`COc1ccc(NC(=O)c2cc(Oc3cncc(F)c3)cn3ccnc23)nc1` showed an IC50 of 39 nM.

For `O=C(Nc1ccc(F)cn1)c1cc(Oc2cncnc2)cn2ncnc12` [drawing 195], the IC50 was 100 nM and 75 nM.
